pIC50: −log10 of the molar value. Non-standard residues stand in square brackets, D forms with d. Residues, ends and D or L forms follow the SMILES beside them. Bip = N[C@@H](Cc1ccc(-c2ccccc2)cc1)C(=O)O; Dip = N[C@H](C(=O)O)C(c1ccccc1)c1ccccc1; 2Nal = N[C@@H](Cc1ccc2ccccc2c1)C(=O)O
Experiments:
PC 9 cells [1] = assay: Propidium iodide/Hoechst 33342 staining (plasma membrane integrity); type: cell-based; conditions: PC 9, 2× IC50, 120 min, serum-free RPMI, fluorescence microscopy
Description: To examine the membranolytic activities of peptides, the PI/Hoechst 33342 staining was performed in this study. The PI dye was used to stain damaged/dead cells, and Hoechst 33342 was used to specifically stain the nuclei of living cells. PC 9 cells were seeded at 20,000 cells/well in a RPMI medium and allowed to adhere for 48 h. Then, the cells were replaced with serum-free RPMI medium and then treated with 2× IC50 peptides at 37 °C for 120 min. Then, the PI and Hoechst 33342 were added at a final concentration of 1 μg/mL for 20 min. PC 9 cells were observed using the inverted fluorescent microscope Zeiss equipped with a 40× oil objective lens (Carl Zeiss, Jena, Germany). The experiments were repeated three times independently.

PC 9 cell line = type: cell-based; conditions: for cell survival rate: 4 h; for cells killed: PC 9, 2× IC50, within 2 h, MTT
Description: A total of 5000 cells were incubated with Nal-P-113, Bip-P-113, and Dip-P-113 at 2× IC50 for 0.5, 1, 2, 3, and 4 h. After treatment, the MTT solution was further incubated for 3 h. Absorbance was measured at 570 nm on the microplate reader (TECAN Sunrise ELISA Reader) after the dissolution of the formazan crystal in 100 µL DMSO solution. The cell survival rate was calculated as aforementioned for cell viability assay.

PC 9 cells [2] = assay: Extracellular ATP release, luciferin-luciferase assay; type: cell-based; conditions: for treatment time of highest ATP release (RLU): PC 9, 2× IC50, time points 0.5, 1, 1.5, 2 h, supernatant
Description: PC 9 cells were seeded at the density of 10,000 cells/ well in the 96-well plate and allowed to adhere for 48 h. Cells were treated with Nal-P-113, Bip-P-113, and Dip-P-113 at 2× IC50 for 0.5, 1, 1.5, and 2 h. Untreated cells were served as the control group. After being treated for different time points (0.5, 1, 1.5, and 2 h), the supernatant of cells was analyzed using the ENLITEN ATP luciferase assay kit (Promega, Madison, WI, USA). The level of extracellular ATP chemiluminescence was measured using the Wallac VICTOR 3 Multilabel plate reader (PerkinElmer, Shelton, CT, USA).

PC 9 cells [3] = assay: JC-1 staining (mitochondrial membrane potential); type: cell-based; conditions: PC 9, 2× IC50, 120 min, serum-free RPMI, fluorescence microscopy
Description: PC 9 cells were seeded at 40,000 cells/well in a RPMI medium and allowed to adhere for 24 h. […] The JC-1 dye was added at a final concentration of 1 μg/mL for 45 min. PC 9 cells were observed using the inverted fluorescent microscope Zeiss equipped with a 20× oil objective lens (Carl Zeiss, Jena, Germany). The experiments were repeated three times independently.

PC 9 cells [4] = assay: Cytochrome c release, ELISA of supernatant; type: cell-based; conditions: PC 9, 2× IC50, supernatant ELISA; for cytochrome c release, maximal value: highest over 0.5-4 h time course (Bip-P-113: at 4 h); for cytochrome c release, minimum value: lowest over 0.5-4 h time course (Bip-P-113: at 30 min)
Description: PC 9 cells were seeded with 10,000 cells/well in the 96-well plate and allowed to adhere for 48 h and then treated with Nal-P-113, Bip-P-113, and Dip-P-113 at 2× IC50 for 0.5, 1, 1.5, 2, and 4 h. Untreated cells were used as a control group. Supernatants were collected after centrifugation at 16,000× g for 10 min. Samples were analyzed using the Quantikine ELISA Rat/ Mouse Cytochrome c Immunoassay (R & D Systems, Minneapolis, MN, USA) according to the manufacturer’s protocol. The optical density at the wavelength of 450 nm of each well was determined using the microplate reader (TECAN Sunrise ELISA Reader).

PC 9 cells [5] = assay: Extracellular HMGB1 release, Western blot; type: cell-based
Description: The PC 9 cells were seeded at the density of 25,000 cells/well and left to adhere for 48 h. Cells were treated with Nal-P-113, Bip-P-113, and Dip-P-113 at 2× IC50 for 1, 2, and 4 h. After treatment of the peptides, the supernatant and lysate of the cells were collected separately for further experiments. The supernatant was collected after centrifugation at the speed of 1400× g. The cell lysate was washed twice using PBS before the sonication of the pellet using a bio-disruptor, and the disrupted pellet was centrifuged again for 10 min under 14,000 rpm at 4 °C. The concentration of the samples was quantified using the Bradford assay. Both supernatants and cell lysate were loaded and run on the sodium dodecyl sulfate polyacrylamide gel electrophoresis (SDS-PAGE) and were then electro transferred to a polyvinylidene difluoride (PVDF) membrane (Merck-Millipore, Burlington, MA, USA) in an electro-blot system, 30 V, 400 mA, for 75 min. The membrane was incubated in blocking buffer (5% skim milk, TBST buffer) for 1 h at room temperature and washed in TBST buffer three times. The anti-HMGB1 antibody (Abcam, Cambridge, UK, ab18256) was incubated overnight at 4 °C in the dilution ratio of 1:1000. The secondary antibody of a rabbit (diluted in 1:10,000) was incubated following rinsing with PBST three times for 2 h the next day at room temperature before being developed using a luminol reagent and imaged by a detected system (ImageQuant LAS 4000 mini).

[6] = tested on: C9 oral squamous cell carcinoma cells; type: cell-based; conditions: 24 h
Description: (§1) The three non-small cell lung cancer cell lines, H1975, PC 9, A549, and oral squamous cell carcinoma cell line OECM-1 were cultured in RPMI 1640 medium supplemented with 10% fetal bovine serum, 2 mM L-glutamine and 1% penicillin/ streptomycin. The oral cancer cell line C9 was cultured in DMEM with 10% fetal bovine serum, 2 mM L-glutamine, and 1% penicillin/ streptomycin.
(§2) The MTT assay was applied for cell viability test according to previous protocol. […] Medium treated with PBS served as control group. […] After medium was removed, 100 µL DMSO was added to dissolve the formazan crystal. Absorbance was measured at 570 nm using a microplate reader (TECAN Sunrise ELISA Reader).

[7] = tested on: OECM-1 gingival epidermoid carcinoma cells; type: cell-based; conditions: 24 h
Description: as §1, §2

[8] = tested on: A549 adenocarcinomic alveolar basal epithelial cells; type: cell-based; conditions: 24 h
Description: as §1, §2

[9] = tested on: PC 9 non-small cell lung cancer cells with EGFR mutation; type: cell-based; conditions: 24 h
Description: as §1, §2

[10] = tested on: H1975 non-small cell lung carcinoma cells; type: cell-based; conditions: 24 h
Description: as §1, §2

human fibroblasts (HFW) = conditions: MTT, 100 μg/mL; cited from earlier work
Description: The toxicity of the peptides was determined previously by measuring cell death using MTT assays against human fibroblasts (HFW).

Row | SMILES | plasma membrane integrity (PI entry) (PC 9 cells [1]) | cell survival rate (PC 9 cell line) | cells killed (PC 9 cell line) | treatment time of highest ATP release (RLU) (PC 9 cells [2]) | mitochondrial membrane potential (JC-1) (PC 9 cells [3]) | cytochrome c release, maximal value (PC 9 cells [4]) | cytochrome c release, minimum value (PC 9 cells [4]) | HMGB1 protein in supernatant (PC 9 cells [5]; PC 9, 2× IC50, 1 h treatment) | HMGB1 protein in supernatant (PC 9 cells [5]; PC 9, 2× IC50, after 2 and 4 h) | pIC50 [6] | pIC50 [7] | pIC50 [8] | pIC50 [9] | pIC50 [10] | cell death (human fibroblasts (HFW)) | ATP release compared among the peptides (PC 9 cells [2]; PC 9, 2× IC50, at the 0.5 h peak)
1 | CC(=O)N[C@@H](C)C(=O)N[C@@H](CCCCN)C(=O)N[C@@H](CCCNC(=N)N)C(=O)N[C@@H](Cc1ccc2ccccc2c1)C(=O)N[C@@H](Cc1ccc2ccccc2c1)C(=O)NCC(=O)N[C@@H](Cc1ccc(O)cc1)C(=O)N[C@@H](CCCCN)C(=O)N[C@@H](CCCNC(=N)N)C(=O)N[C@@H](CCCCN)C(=O)N[C@@H](Cc1ccccc1)C(=O)N[C@@H](Cc1ccc2ccccc2c1)C(N)=O [Nal-P-113] (Ac-AKR[2Nal][2Nal]GYKRKF[2Nal]-NH2) | cause damage to the plasma membrane integrity | below 50% | more than 80% | 0.5 h | induced changes of the mitochondrial membrane potential | around 3.5 ng/mL | lower than 2 ng/mL | No HMGB1 protein was observed | can clearly be seen | 4.67 | 4.59 | 4.42 | 4.55 | 4.23 | less than 10% | –
2 | CC(=O)N[C@@H](C)C(=O)N[C@@H](CCCCN)C(=O)N[C@@H](CCCNC(=N)N)C(=O)N[C@H](C(=O)N[C@H](C(=O)NCC(=O)N[C@@H](Cc1ccc(O)cc1)C(=O)N[C@@H](CCCCN)C(=O)N[C@@H](CCCNC(=N)N)C(=O)N[C@@H](CCCCN)C(=O)N[C@@H](Cc1ccccc1)C(=O)N[C@H](C(N)=O)C(c1ccccc1)c1ccccc1)C(c1ccccc1)c1ccccc1)C(c1ccccc1)c1ccccc1 [Dip-P-113] (Ac-AKR[Dip][Dip]GYKRKF[Dip]-NH2) | cause damage to the plasma membrane integrity | around 60% | – | 0.5 h | induced changes of the mitochondrial membrane potential | around 3.5 ng/mL | lower than 2 ng/mL | No HMGB1 protein was observed | can clearly be seen | 4.17 | 4.20 | 4.02 | 4.15 | – | less than 10% | –
3 | CC(=O)N[C@@H](C)C(=O)N[C@@H](CCCCN)C(=O)N[C@@H](CCCNC(=N)N)C(=O)N[C@@H](Cc1c[nH]cn1)C(=O)N[C@@H](Cc1c[nH]cn1)C(=O)NCC(=O)N[C@@H](Cc1ccc(O)cc1)C(=O)N[C@@H](CCCCN)C(=O)N[C@@H](CCCNC(=N)N)C(=O)N[C@@H](CCCCN)C(=O)N[C@@H](Cc1ccccc1)C(=O)N[C@@H](Cc1c[nH]cn1)C(N)=O [P-113, reference compound] (Ac-AKRHHGYKRKFH-NH2; N-terminus and C-terminus assumed) | – | – | – | – | – | – | – | – | – | – | – | – | < 3.70 | – | – | –
4 | CC(=O)N[C@@H](C)C(=O)N[C@@H](CCCCN)C(=O)N[C@@H](CCCNC(=N)N)C(=O)N[C@@H](Cc1ccc(-c2ccccc2)cc1)C(=O)N[C@@H](Cc1ccc(-c2ccccc2)cc1)C(=O)NCC(=O)N[C@@H](Cc1ccc(O)cc1)C(=O)N[C@@H](CCCCN)C(=O)N[C@@H](CCCNC(=N)N)C(=O)N[C@@H](CCCCN)C(=O)N[C@@H](Cc1ccccc1)C(=O)N[C@@H](Cc1ccc(-c2ccccc2)cc1)C(N)=O [Bip-P-113] (Ac-AKR[Bip][Bip]GYKRKF[Bip]-NH2) | cause damage to the plasma membrane integrity | below 50% | more than 80% | 0.5 h | induced changes of the mitochondrial membrane potential | ~15 ng/mL | 3 ng/mL | No HMGB1 protein was observed | can hardly be detected | 4.38 | 4.37 | 4.31 | 4.19 | 4.20 | less than 10% | lowest ATP release
5 | CC(=O)N[C@@H](C)C(=O)N[C@@H](CCCCN)C(=O)N[C@@H](CCCNC(=N)N)C(=O)N[C@@H](Cc1ccccc1)C(=O)N[C@@H](Cc1ccccc1)C(=O)NCC(=O)N[C@@H](Cc1ccc(O)cc1)C(=O)N[C@@H](CCCCN)C(=O)N[C@@H](CCCNC(=N)N)C(=O)N[C@@H](CCCCN)C(=O)N[C@@H](Cc1ccccc1)C(=O)N[C@@H](Cc1ccccc1)C(N)=O [Phe-P-113] (Ac-AKRFFGYKRKFF-NH2) | – | – | – | – | – | – | – | – | – | 4.09 | 3.92 | 4.00 | 3.76 | – | – | –

Source: PMC9138567, “Strategy to Enhance Anticancer Activity and Induced Immunogenic Cell Death of Antimicrobial Peptides by Using Non-Nature Amino Acid Substitutions” (Biomedicines, 2022)
